Test results as given in US12060385B2, “Compounds for RNA capping and uses thereof” (GUANGZHOU HENOVCOM BIOSCIENCE CO., LTD., priority 2022, dated 2024).

Tests used:
[1] = target: T7 RNA Polymerase (Escherichia phage T7, UniProt P00573); format: biochemical; conditions: 20 μL transcription system, Cap1 Analog 4 mM, 37° C. 2 to 3 hours
Description: • 1) A plasmid was linearized and the DNA template was purified. • 2) mRNA was synthesized in vitro with 51 types of capping structures of the present disclosure, or without any cap analogues. CleanCap®AG (3′OMe) (Trilink, N-7413) was applied as positive control group, uncapped mRNA was negative control group, and DNAase/RNase-Free water was a blank control group.
The system was incubated for 2 to 3 hours at 37° C. and digested by TURBO DNase for 15 min LiCl was used to precipitate mRNA for at least 30 min, or overnight, mRNA precipitates were then washed with 75% ethanol. After ethanol was quickly volatilized, mRNA was re-solubilized with RNase-Free water. • 3) The transcribed products were purified and the transcription yields were calculated.

[2] = tested on: mRNA; experiment: Capping efficiency of mRNA with different cap analogs by LC-MS; format: biochemical; conditions: LC-MS after RNase H cleavage
Description: In a PCR machine, the annealing was performed using the following gradients: • 95° C. for 5 min; 65° C. for 2 min; 55° C. for 2 min; 40° C. for 2 min; 22° C. for 2 min • 5) Pre-treatment of magnetic beads were bound with probes.
100 μL of magnetic beads were placed on a magnetic rack and the preservation solution was removed. 100 μL of 1*BW solution was added, mixed well, and placed on the magnetic rack, and the supernatant was then removed. The washing step was repeated three times. 100 μL of wash A buffer was added, mixed well, and placed on the magnetic rack, and the supernatant was then removed. The washing step was repeated three times. 100 μL of wash B buffer was added, mixed well, and placed on the magnetic rack, and the supernatant was then removed. The washing step was repeated three times. After 120 μL of sample was added, the sample and the magnetic beads solution were incubated for 30 min at room temperature, and they were gently mixed well while incubation. • 6) mRNA was spliced to obtain 5′ end mRNA single stranded sequence and binding with the probe.
20 μL of RNase H (5 U/mL) was added, incubated for 3 hours at 37° C., mixed once every half an hour. 100 μL of 1*BW solution was added, mixed well, and placed on the magnetic rack, and then the supernatant was removed. The washing step was repeated three times. Subsequently, 100 μL of deionized aqueous solution was added, mixed well, and placed on the magnetic rack, and the supernatant was then removed. The washing step was repeated three times. 100 μL of 75% methanol at 80° C. was added, and the mixture was incubated at 80° C. on a heater plate for 3 min, and placed on the magnetic rack, and the supernatant was then pipetted. The sample was dried using an evaporative centrifuge at room temperature for 45 min to 10 μL, and then resuspended in 50 μL of 100 μM EDTA solution in 1% MeOH for LC-MS analysis.
The capping efficiencies of mRNA with different cap analogs were determined by LC-MS, and some compounds of the results were shown in Table 4.

Sequence of T7 RNA Polymerase (P00573 whole entry): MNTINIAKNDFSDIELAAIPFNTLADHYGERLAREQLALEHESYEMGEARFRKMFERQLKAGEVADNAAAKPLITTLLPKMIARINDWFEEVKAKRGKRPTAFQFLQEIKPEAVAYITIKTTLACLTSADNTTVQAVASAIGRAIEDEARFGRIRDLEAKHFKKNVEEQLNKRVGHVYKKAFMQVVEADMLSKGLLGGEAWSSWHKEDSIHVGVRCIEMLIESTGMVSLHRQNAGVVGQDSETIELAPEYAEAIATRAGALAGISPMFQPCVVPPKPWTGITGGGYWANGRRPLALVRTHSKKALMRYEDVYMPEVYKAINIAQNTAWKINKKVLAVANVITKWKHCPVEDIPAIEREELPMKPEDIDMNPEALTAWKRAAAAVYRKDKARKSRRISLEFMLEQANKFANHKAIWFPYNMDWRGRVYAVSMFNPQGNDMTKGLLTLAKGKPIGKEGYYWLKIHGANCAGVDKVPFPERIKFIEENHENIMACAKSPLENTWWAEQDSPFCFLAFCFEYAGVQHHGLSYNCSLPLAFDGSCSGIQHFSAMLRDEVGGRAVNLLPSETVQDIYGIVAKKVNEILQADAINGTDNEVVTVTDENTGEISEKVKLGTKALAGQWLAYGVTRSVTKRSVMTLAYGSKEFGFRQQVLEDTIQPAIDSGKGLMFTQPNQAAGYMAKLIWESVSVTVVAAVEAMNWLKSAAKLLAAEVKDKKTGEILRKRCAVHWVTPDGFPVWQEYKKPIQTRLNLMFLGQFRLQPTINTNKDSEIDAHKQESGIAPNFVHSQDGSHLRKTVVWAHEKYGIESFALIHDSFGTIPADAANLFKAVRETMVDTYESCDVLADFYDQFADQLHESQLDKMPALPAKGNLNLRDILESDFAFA

Structure (SMILES)	Final product mass obtained from the 20 μL of mRNA transcription system [1]	Capping efficiency [2]
CCOC[C@H]1[C@@H](O)[C@H](n2c[n+](C)c3c(=O)[nH]c(N)nc32)O[C@@H]1COP(=O)(O)OP(=O)(O)OP(=O)(O)OC[C@H]1O[C@@H](n2cnc3c(N)ncnc32)[C@H](OC)[C@@H]1OP(=O)(O)OC[C@H]1O[C@@H](n2cnc3c(=O)[nH]c(N)nc32)[C@H](O)[C@@H]1O [Compound 139]	116 µg	A (100% > A ≥ 95%)
CO[C@@H]1[C@H](OP(=O)([O-])OC[C@H]2O[C@@H](n3cnc4c(=O)[nH]c(N)nc43)[C@H](O)[C@@H]2O)[C@@H](COP(=O)(O)OP(=O)(O)OP(=O)(O)OC[C@H]2OC(n3c[n+](C)c4c(=O)[nH]c(N)nc43)[C@H](O)[C@@H]2CC(=O)N(C)C)O[C@H]1n1cnc2c(N)ncnc21 (stereo partly shown) [Compound 4]	78 µg	A (100% > A ≥ 95%)
CNC(=O)C[C@H]1[C@@H](O)[C@H](n2c[n+](C)c3c(=O)[nH]c(N)nc32)O[C@@H]1COP(=O)(O)OP(=O)(O)OP(=O)(O)OC[C@H]1O[C@@H](n2cnc3c(N)ncnc32)[C@H](OC)[C@@H]1OP(=O)(O)OC[C@H]1O[C@@H](n2cnc3c(=O)[nH]c(N)nc32)[C@H](O)[C@@H]1O [Compound 393]	95 µg	A (100% > A ≥ 95%)
COCCOC[C@H]1[C@@H](O)[C@H](n2c[n+](C)c3c(=O)[nH]c(N)nc32)O[C@@H]1COP(=O)(O)OP(=O)(O)OP(=O)(O)OC[C@H]1O[C@@H](n2cnc3c(N)ncnc32)[C@H](OC)[C@@H]1OP(=O)(O)OC[C@H]1O[C@@H](n2cnc3c(=O)[nH]c(N)nc32)[C@H](O)[C@@H]1O [Compound 141]	84 µg	A (100% > A ≥ 95%)
CO[C@@H]1[C@H](OP(=O)([O-])OC[C@H]2O[C@@H](n3cnc4c(=O)[nH]c(N)nc43)[C@H](O)[C@@H]2O)[C@@H](COP(=O)(O)OP(=O)(O)OP(=O)(O)OC[C@H]2O[C@@H](n3c[n+](C)c4c(=O)[nH]c(N)nc43)[C@H](O)[C@@H]2CCN2CCOCC2)O[C@H]1n1cnc2c(N)ncnc21 [Compound 633]	100 µg	B (95% > B ≥ 90%)
CCCOCC[C@H]1[C@@H](O)[C@H](n2c[n+](C)c3c(=O)[nH]c(N)nc32)O[C@@H]1COP(=O)(O)OP(=O)(O)OP(=O)(O)OC[C@H]1O[C@@H](n2cnc3c(N)ncnc32)[C@H](OC)[C@@H]1OP(=O)(O)OC[C@H]1O[C@@H](n2cnc3c(=O)[nH]c(N)nc32)[C@H](O)[C@@H]1O [Compound 163]	102 µg	–
COCCNC(=O)C[C@@H]1[C@@H](COP(=O)(O)OP(=O)(O)OP(=O)(O)OC[C@H]2O[C@@H](n3cnc4c(N)ncnc43)[C@H](OC)[C@@H]2OP(=O)([O-])OC[C@H]2O[C@@H](n3cnc4c(=O)[nH]c(N)nc43)[C@H](O)[C@@H]2O)OC(n2c[n+](C)c3c(=O)[nH]c(N)nc32)[C@@H]1O (stereo partly shown) [Compound 58]	115 µg	–
COC[C@@H]1[C@@H](COP(=O)(O)OP(=O)([O-])OP(=O)([O-])OC[C@H]2O[C@@H](n3cnc4c(N)ncnc43)[C@H](OC)[C@@H]2NP(=O)(O)OC[C@H]2O[C@@H](n3cnc4c(=O)[nH]c(N)nc43)[C@H](O)[C@@H]2O)OC(n2c[n+](C)c3c(=O)[nH]c(N)nc32)[C@@H]1O.[Na+] (stereo partly shown) [Compound 195]	69 µg	–
C#CCOCC[C@H]1[C@@H](O)[C@H](n2c[n+](C)c3c(=O)[nH]c(N)nc32)O[C@@H]1COP(=O)(O)OP(=O)(O)OP(=O)(O)OC[C@H]1O[C@@H](n2cnc3c(N)ncnc32)[C@H](OC)[C@@H]1OP(=O)(O)OC[C@H]1O[C@@H](n2cnc3c(=O)[nH]c(N)nc32)[C@H](O)[C@@H]1O [Compound 51]	114 µg	–
CO[C@@H]1[C@H](OP(=O)([O-])OC[C@H]2O[C@@H](n3cnc4c(=O)[nH]c(N)nc43)[C@H](O)[C@@H]2O)[C@@H](COP(=O)(O)OP(=O)(O)OP(=O)(O)OC[C@H]2O[C@@H](n3c[n+](C)c4c(=O)[nH]c(N)nc43)[C@H](O)[C@@H]2CCO)O[C@H]1n1cnc2c(N)ncnc21 [Compound 153]	65 µg	–
CO[C@@H]1[C@H](OP(=O)([O-])OC[C@H]2O[C@@H](n3cnc4c(=O)[nH]c(N)nc43)[C@H](O)[C@@H]2O)[C@@H](COP(=O)(O)OP(=O)(O)OP(=O)(O)OC[C@H]2O[C@@H](n3c[n+](C)c4c(=O)[nH]c(N)nc43)[C@H](O)[C@@H]2CNC(C)=O)O[C@H]1n1cnc2c(N)ncnc21 [Compound 6]	103 µg	A (100% > A ≥ 95%)
COC[C@H]1[C@@H](O)[C@H](n2c[n+](C)c3c(=O)[nH]c(N)nc32)O[C@@H]1COP(=O)(O)OP(=O)(O)OP(=O)(O)OC[C@H]1O[C@@H](n2cnc3c(N)ncnc32)[C@H](OC)[C@@H]1OP(=O)([O-])OC[C@H]1O[C@@H](n2ccc(=O)[nH]c2=O)[C@H](O)[C@@H]1O [Compound 110]	106 µg	–
CO[C@@H]1[C@H](OP(=O)(O)OC[C@H]2O[C@@H](n3cnc4c(=O)[nH]c(N)nc43)[C@H](O)[C@@H]2O)[C@@H](COP(=O)(O)OP(=O)(O)OP(=O)(O)OC[C@H]2O[C@@H](n3c[n+](C)c4c(=O)[nH]c(N)nc43)[C@H](O)[C@@H]2CO)O[C@H]1n1cnc2c(N)ncnc21 [Compound 137]	116 µg	–
CO[C@@H]1[C@H](OP(=O)(O)OC[C@H]2O[C@@H](n3cnc4c(=O)[nH]c(N)nc43)[C@H](O)[C@@H]2O)[C@@H](COP(=O)(O)CP(=O)(O)OP(=O)(O)OC[C@H]2O[C@@H](n3c[n+](C)c4c(=O)[nH]c(N)nc43)[C@H](O)[C@@H]2CC(=O)N(C)C)O[C@H]1n1cnc2c(N)ncnc21 [Compound 421]	98 µg	–
CO[C@@H]1[C@H](OP(=O)(O)OC[C@H]2O[C@@H](n3cnc4c(=O)[nH]c(N)nc43)[C@H](O)[C@@H]2O)[C@@H](COP(=O)(O)CP(=O)(O)OP(=O)(O)OC[C@H]2O[C@@H](n3c[n+](C)c4c(=O)[nH]c(N)nc43)[C@H](O)[C@@H]2CNC(C)=O)O[C@H]1n1cnc2c(N)ncnc21 [Compound 329]	110 µg	–
CO[C@@H]1[C@H](OP(=O)([O-])OC[C@H]2O[C@@H](n3cnc4c(=O)[nH]c(N)nc43)[C@H](O)[C@@H]2O)[C@@H](COP(=O)(O)OP(=O)(O)OP(=O)(O)OC[C@H]2O[C@@H](n3c[n+](C)c4c(=O)[nH]c(N)nc43)[C@H](O)[C@@H]2CN=[N+]=[N-])O[C@H]1n1cnc2c(N)ncnc21 [Compound 635]	118 µg	–
CO[C@@H]1[C@H](OP(=O)(O)OC[C@H]2O[C@@H](n3cnc4c(=O)[nH]c(N)nc43)[C@H](O)[C@@H]2O)[C@@H](COP(=O)(O)OP(=O)(O)OP(=O)(O)OP(=O)(O)OC[C@H]2O[C@@H](n3c[n+](C)c4c(=O)[nH]c(N)nc43)[C@H](O)[C@@H]2CC(=O)N(C)C)O[C@H]1n1cnc2c(N)ncnc21 [Compound 437]	114 µg	–
COC[C@H]1[C@@H](O)[C@H](n2c[n+](C)c3c(=O)[nH]c(N)nc32)O[C@@H]1COP(=O)(O)CP(=O)(O)OP(=O)(O)OC[C@H]1O[C@@H](n2cnc3c(N)ncnc32)[C@H](OC)[C@@H]1OP(=O)(O)OC[C@H]1O[C@@H](n2cnc3c(=O)[nH]c(N)nc32)[C@H](O)[C@@H]1O [Compound 171]	105 µg	–
CO[C@@H]1[C@H](OP(=O)([O-])OC[C@H]2O[C@@H](n3cnc4c(=O)[nH]c(N)nc43)[C@H](O)[C@@H]2O)[C@@H](CSP(=O)(O)OP(=O)(O)OP(=O)(O)OC[C@H]2O[C@@H](n3c[n+](C)c4c(=O)[nH]c(N)nc43)[C@H](O)[C@@H]2CNC(C)=O)O[C@H]1n1cnc2c(N)ncnc21 [Compound 561]	108 µg	–
